Measured values reported in patent publication US8877798B2, “1-aryl-3-azabicyclo[3.1.0]hexanes: preparation and use to treat neuropsychiatric disorders” (priority 2005, dated 2014).
pIC50, pKi: −log10 of the molar value. Read-outs that look alike come from different tables or passages of the source.

Key:
[1] = target: DAT (Homo sapiens (Human), UniProt Q01959); test: DAT binding
[2] = target: SERT (Homo sapiens (Human), UniProt P31645); test: SERT binding
[3] = target: NET (Homo sapiens (Human), UniProt P23975); test: NET binding
[4] = target: 5-HT uptake, rat brain synaptosomes (Rattus norvegicus (Rat), UniProt P31652); test: 5-HT uptake inhibition in rat brain synaptosomes; type: biochemical; conditions: for IC50: [3H]5-HT, rat brain synaptosomes, 15 min at 37° C., read-out: Uptake IC50 (nM) 5-HT
Procedure: (§1) The effects of exemplary compounds of the invention on the cellular uptake of norepinephrine (NE), dopamine (DA) and serotonin (5-HT) were tested in preparations of synaptosomes from different rat brain regions using the previously-reported techniques referenced below.
(§2) Whole brains were obtained from normal rats. Synaptosomal preparations were made from either whole brain (5-HT), striatum (DA) or hypothalamus (NE) by gentle disruption in 10 volumes (w/v) of 0.32 M sucrose (0-4° C.) using a Teflon-glass homogenizer. The homogenate was then centrifuged at 1000×g for 10 min. The supernatant was retained and centrifuged at 23000 g for 20 min. The resulting pellet was gently resuspended in 200 volumes of 0.32 M sucrose (0-4° C.) using the Teflon-glass homogenizer. Aliquots (250 μL) of this preparation were added to tubes, along with 0.2 μCi/mL of [^3H]5-HT, [^3H]DA, or [^3H]NE, 200 μL of the test compounds (to yield final concentrations of 100 nM, 300 nM, 1 μM, 3 μM, 10 μM, 30 μM or 100 μM) and 1 mL of Krebs-Ringer bicarbonate buffer (pH 7.4). The mixtures were incubated for either 15 (DA and 5-HT uptake) or 20 (NE uptake) minutes at 37° C. At the end of this period, the assay was terminated by rapid filtration over Whatman GF/C glass fiber filters. The filters were rinsed 3 times with 4 ml of Krebs-Ringer bicarbonate buffer (0-4° C.), and the radioactivity retained on the filters measured by liquid scintillation spectrometry.
(§3) Each assay was run according to the description of the respective publications cited above, and according to the following parameters/reagents/conditions.
(§4) In each experiment, the respective reference compound was tested concurrently with the test compounds in order to assess the assay suitability. It was tested at several concentrations (for IC50 value determination). The assay was considered valid if the suitability criteria were met, in accordance with the corresponding Standard Operating Procedure.
Individual and mean values are presented with the results. The IC50 values (concentration causing a half-maximal inhibition of control values) were determined by non-linear regression analysis of the inhibition curves using Hill equation curve fitting.

[5] = target: dopamine (DA) uptake, rat striatum synaptosomes (Rattus norvegicus (Rat), UniProt P23977); test: Dopamine (DA) uptake inhibition in rat striatum synaptosomes; type: biochemical
Procedure: as §1, §2, §3, §4
The results of these uptake inhibition assays are expressed below as a percent of control values obtained in the […] of the test compounds. Individual and mean values are presented with the results. The IC50 values (concentration causing a half-maximal inhibition of control values) were determined by non-linear regression analysis of the inhibition curves using Hill equation curve fitting.

[6] = tested on: reuptake of norepinephrine, serotonin and dopamine; conditions: reported in the literature (Skolnick et al. 2003); cited from earlier work

Chain of dopamine (DA) uptake, rat striatum synaptosomes (P23977 whole entry): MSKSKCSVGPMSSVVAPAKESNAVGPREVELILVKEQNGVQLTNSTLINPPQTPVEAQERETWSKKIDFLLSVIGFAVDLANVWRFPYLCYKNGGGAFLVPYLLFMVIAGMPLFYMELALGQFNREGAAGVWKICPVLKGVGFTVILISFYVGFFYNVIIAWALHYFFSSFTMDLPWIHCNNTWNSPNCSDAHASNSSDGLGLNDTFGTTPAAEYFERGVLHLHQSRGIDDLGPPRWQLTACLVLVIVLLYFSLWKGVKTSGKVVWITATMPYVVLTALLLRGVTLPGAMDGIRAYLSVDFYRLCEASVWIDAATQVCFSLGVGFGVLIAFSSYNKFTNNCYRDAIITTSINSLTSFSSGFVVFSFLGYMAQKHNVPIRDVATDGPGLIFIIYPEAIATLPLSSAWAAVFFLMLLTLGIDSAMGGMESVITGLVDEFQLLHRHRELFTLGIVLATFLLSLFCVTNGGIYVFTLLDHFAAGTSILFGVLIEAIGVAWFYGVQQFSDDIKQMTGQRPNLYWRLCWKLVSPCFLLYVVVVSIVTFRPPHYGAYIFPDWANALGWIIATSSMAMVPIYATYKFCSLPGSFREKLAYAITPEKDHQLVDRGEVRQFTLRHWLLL

SMILES	pKi ([1]; read-out: Binding DAT Ki)	pKi ([2]; read-out: Binding SERT Ki)	pKi ([3]; read-out: Binding NET Ki)	IC50 [4] [nM]	pIC50 [5]	other results
CN1CC2C[C@@]2(c2ccc(Cl)c(Cl)c2)C1 (stereo partly shown)	6.98	7.80	7.09	23	6.92	–
CN1CC2C[C@]2(c2ccc(Cl)c(Cl)c2)C1 (stereo partly shown)	7.21	6.90	6.31	87	6.89	–
CCN1CC2C[C@@]2(c2ccc(Cl)c(Cl)c2)C1 (stereo partly shown)	7.89	7.06	7.49	56	7.10	–
CCN1CC2C[C@]2(c2ccc(Cl)c(Cl)c2)C1 (stereo partly shown)	7.34	6.95	6.23	45	6.72	–
CCCN1CC2CC2(c2ccc(Cl)c(Cl)c2)C1 (stereo not shown)	6.60	5.78	5.74	470	6.00	–
CCCN1CC2C[C@@]2(c2ccc(Cl)c(Cl)c2)C1 (stereo partly shown)	6.66	5.70	5.40	590	5.74	–
CCCN1CC2C[C@]2(c2ccc(Cl)c(Cl)c2)C1 (stereo partly shown)	6.77	5.62	5.97	390	6.11	–
CCCCN1CC2CC2(c2ccc(Cl)c(Cl)c2)C1 (stereo not shown)	6.62	5.21	5.66	1200	7.11	–
CCCCN1CC2C[C@@]2(c2ccc(Cl)c(Cl)c2)C1 (stereo partly shown)	6.40	5.12	5.72	3000	5.66	–
CCCCN1CC2C[C@]2(c2ccc(Cl)c(Cl)c2)C1 (stereo partly shown)	6.67	5.05	5.96	2600	5.92	–
CC(C)N1CC2CC2(c2ccc(Cl)c(Cl)c2)C1 (stereo not shown)	7.41	6.91	6.08	30	6.59	–
CC(C)N1CC2C[C@@]2(c2ccc(Cl)c(Cl)c2)C1 (stereo partly shown)	7.60	6.48	6.29	170	6.48	–
CC(C)N1CC2C[C@]2(c2ccc(Cl)c(Cl)c2)C1 (stereo partly shown)	7.14	6.88	5.29	100	6.37	–
Clc1ccc(C23CC2CN(C2CC2)C3)cc1Cl (stereo not shown)	5.77	5.43	5.02	2600	5.82	–
CC(C)(C)N1CC2CC2(c2ccc(Cl)c(Cl)c2)C1 (stereo not shown)	–	–	–	–	–	pKi [1]: 6.38; pKi [2]: 6.10; pKi [3]: 5.03; pIC50 [4]: 6.62; IC50 ([5]; [3H]DA, rat striatum synaptosomes, 15 min at 37° C., read-out: Uptake IC50 (nM) DA): 1500 nM
CN1CC2CC2(c2ccc(F)cc2F)C1 (stereo not shown)	–	–	5.18	1100	5.13	–
CN1CC2CC2(c2ccc(F)c(F)c2)C1 (stereo not shown)	5.72	5.80	6.00	400	5.74	–
Fc1ccc(C23CNCC2C3)cc1Cl (stereo not shown)	6.17	6.64	5.77	310	5.85	–
Fc1ccc([C@]23CNCC2C3)cc1Cl (stereo partly shown)	–	–	–	186	6.24	–
CN1CC2CC2(c2ccc(F)c(Cl)c2)C1 (stereo not shown)	6.19	6.72	6.46	79	6.11	–
CN1CC2C[C@@]2(c2ccc(F)c(Cl)c2)C1 (stereo partly shown)	–	–	–	362	6.31	–
CN1CC2C[C@]2(c2ccc(F)c(Cl)c2)C1 (stereo partly shown)	–	–	–	835	–	–

SMILES	pKi ([1]; read-out: Binding DAT Ki)	pKi ([2]; read-out: Binding SERT Ki)	pKi ([3]; read-out: Binding NET Ki)	IC50 [4] [nM]	pIC50 [5]	other results
Fc1cc([C@]23CNCC2C3)ccc1Cl (stereo partly shown)	–	–	–	252	6.38	–
CN1CC2C[C@@]2(c2ccc(Cl)c(F)c2)C1 (stereo partly shown)	–	–	–	413	6.36	–
CN1CC2CC2(c2ccc(Cl)cc2Cl)C1 (stereo not shown)	–	6.30	5.21	520	5.00	–
Cc1cc(C23CC2CN(C)C3)ccc1F (stereo not shown)	5.66	6.27	6.04	200	6.43	–
Cc1ccc(C23CNCC2C3)cc1F (stereo not shown)	–	–	–	266	6.34	–
Cc1ccc([C@]23CNCC2C3)cc1F (stereo partly shown)	–	–	–	133	6.40	–
Cc1ccc(C23CC2CN(C)C3)cc1F (stereo not shown)	6.57	6.08	6.59	110	6.15	–
Cc1ccc([C@@]23CC2CN(C)C3)cc1F (stereo partly shown)	–	–	–	836	6.42	–
Cc1ccc([C@]23CC2CN(C)C3)cc1F (stereo partly shown)	–	–	–	702	6.04	–
CN1CC2CC2(c2ccc([N+](=O)[O-])c(Cl)c2)C1 (stereo not shown)	–	6.15	–	790	–	–
CN1CC2CC2(c2cccc3ccccc23)C1 (stereo not shown)	–	–	–	119	6.29	–
CN1CC2C[C@@]2(c2cccc3ccccc23)C1 (stereo partly shown)	–	–	–	–	6.04	–
c1ccc2cc([C@]34CNCC3C4)ccc2c1 (stereo partly shown)	–	–	–	–	7.31	pIC50 [4]: 7.19
c1ccc2cc([C@@]34CNCC3C4)ccc2c1 (stereo partly shown)	–	–	–	–	7.01	pIC50 [4]: 6.77
CN1CC2CC2(c2ccc3ccccc3c2)C1 (stereo not shown)	7.17	8.22	6.28	31	6.46	–
CN1CC2C[C@@]2(c2ccc3ccccc3c2)C1 (stereo partly shown)	–	–	–	< 10	7.09	–
CN1CC2C[C@]2(c2ccc3ccccc3c2)C1 (stereo partly shown)	–	–	–	117	6.83	–
COc1ccc2cc(C34CNCC3C4)ccc2c1 (stereo not shown)	–	–	–	82	6.68	–
COc1ccc2cc(C34CC3CN(C)C4)ccc2c1 (stereo not shown)	–	–	–	14	7.04	–
CCOc1ccc2cc(C34CNCC3C4)ccc2c1 (stereo not shown)	–	–	–	700	6.25	–
CCOc1ccc2cc(C34CC3CN(C)C4)ccc2c1 (stereo not shown)	–	–	–	210	6.44	–
Clc1ccc(C23CNCC2C3)cc1Cl (stereo not shown) [1-(3,4-dichlorophenyl)-3-azabicyclo[3.1.0]hexane]	–	–	–	–	–	inhibition of reuptake of norepinephrine, serotonin and dopamine [6]: inhibit reuptake of norepinephrine, serotonin and dopamine
